From PMC9856044 (Biomolecules, 2023)

What was measured:
[1] = biological target: Tel22 (5′-AGGG(TTAGGG)3–3′) G-quadruplex; experiment: Fluorimetric titration with Tel22 in potassium phosphate buffer (K+ solution); assay type: binding, human
Protocol: Materials. Polynucleotides were purchased as noted: poly A–poly U, calf thymus ctDNA, poly(dAdT)2 and poly(dGdC)2 (Sigma-Aldrich, St. Louis, MI, USA). Polynucleotides were dissolved in Na-cacodylate buffer, I = 0.05 mol dm^−3, pH = 7.0. The calf thymus ctDNA was additionally sonicated and filtered through a […]. Polynucleotide concentration was determined spectroscopically as the concentration of phosphates. Spectrophotometric titrations were performed at pH = 7.0 (I = 0.05 mol dm^−3, sodium cacodylate buffer) by adding aliquots of polynucleotide solution into the solution of the studied compound for fluorimetric experiments and CD experiments were done by adding aliquots of the compound stock solution into the solution of a polynucleotide. In fluorimetric experiments, an excitation wavelength of λexc = 425, 431, 423, 427, 406 and 407 nm, respectively, was used to avoid the inner filter effect caused due to increasing absorbance of the polynucleotide. Emission was collected in the range λem = 400–700 nm. Values for Ka obtained by processing titration data using the Scatchard equation [27], all have satisfactory correlation coefficients (≥0.98).
(§1) Thermal melting curves for DNA, RNA and their complexes with studied compounds were determined as previously described by following the absorption change at 260 nm as a function of temperature. The absorbance of the ligands was subtracted from every curve and the absorbance scale was normalized. Tm values are the midpoints of the transition curves determined from the maximum of the first derivative and checked graphically by the tangent method. The ∆Tm values were calculated by subtracting Tm of the free nucleic acid from Tm of the complex. Every ∆Tm value here reported was the average of two measurements. The error in ∆Tm is ±0.5 °C. 5′-AGGG(TTAGGG)3–3′(Tel22) was obtained from IDT (Integrated DNA Technologies, Coralville, IA, USA). Tel22 was dissolved in 0.1 M either in sodium cacodylate or potassium phosphate buffer. The starting Tel22 oligonucleotide solution was first heated up to 95 °C for 10 min, then slowly cooled to 10 °C at the cooling rate of 1 °C/min to allow DNA oligonucleotide to adopt a G-quadruplex structure. The G-quadruplex structure was confirmed by thermal melting and CD spectra. The concentration of G quadruplex was expressed in terms of oligonucleotide structure. In fluorimetric titrations, aliquots of Tel 22 solution were added to the solution of ligands (c ~ 2 × 10^−7 M, in SI).
Binding constants (log Ka) and stoichiometry of complexes were calculated from the fluorimetric data using non-linear least-square program SPECFIT [46], in the concentration range that corresponded to 20–80% complex formed.

[2] = system: Fibroblasts; experiment: MTT cytotoxicity assay, normal human skin fibroblasts; assay type: cell-based; conditions: Fibroblast, 72 h incubation, ± SD
Protocol: (§2) Human cervical carcinoma HeLa (GIBCO BRL, Invitrogen, Waltham, MA, USA), human melanoma MDA-MB-435S and human ovarian adenocarcinoma SK-OV-3 (ATCC-LGC Standards GmbH, Wesel, Germany) cell lines were purchased from indicated cell culture banks. Normal human skin fibroblasts were isolated from the upper arm of a donor at the Neurochemical Laboratory, Department of Chemistry and Biochemistry, School of Medicine, University of Zagreb. HeLa, MDA-MB-435S and fibroblasts were grown in Dulbecco’s Modified Eagle’s Medium (DMEM; Sigma-Aldrich, St. Louis, MI, USA) while the SK-OV-3 cell line was grown in McCoy’s 5A medium (Capricorn Scientific, Ebsdorfergrund, Germany). All media were supplemented with 10% fetal bovine serum (FBS; Sigma-Aldrich) and 50 I.U./mL penicillin and 50 μg/mL streptomycin. Cells were cultured in a humidified atmosphere of 5% CO2 at 37 °C and were sub-cultured every 3–4 days. HeLa, MDA-MB-435S, SK-OV-3 cells and fibroblasts were seeded in 96 well plates. Twenty-four hours later the cells were treated, in quadruplicate, with different concentrations of compounds (dissolved in DMSO, kept at 4 °C and protected from light). Following 72 h of incubation at 37 °C, the medium was aspired and modified 3-(4,5-dimethylthiazol-2-yl)-2,5-diphenyltetrazolium bromide (MTT) assay was used to determine the cytotoxic effect of the tested compounds. Three hours later, formazan crystals were dissolved in DMSO (0.17 mL/well), the plates were mechanically agitated for 20 min and the optical density at 600 nm was determined on a microtiter plate reader (Awareness Technology Inc., Palm City, FL, USA). The experiments were repeated three times.

[3] = system: Tel22 G-quadruplex; experiment: Thermal melting of Tel22 in sodium cacodylate buffer; assay type: binding, human; conditions: Tel22, r = 1.0, sodium cacodylate buffer, pH = 7.0, I = 0.1 mol dm^−3; error ± 0.5 °C
Protocol: as §1

[4] = Solubility and aggregation (UV/Vis characterization); assay type: physicochemical; conditions: sodium cacodylate buffer, I = 0.05 mol dm^−3, pH = 7.0; UV/Vis
Protocol: The UV/vis spectra were recorded on a Varian Cary 100 Bio spectrophotometer (Agilent, Santa Clara, CA, USA), CD spectra on JASCO J815 spectrophotometer (ABL&E Handels GmbH, Wien, Austria) and fluorescence spectra on a Varian Cary Eclipse spectrophotometer (Agilent, Santa Clara, CA, USA) at 25 °C using appropriate 1 cm path quartz cuvettes.
Studied compounds, 1–6 were soluble (c = 8 × 10^−4 mol dm^−3) in DMSO. […] Therefore, the stock solution of 2 was prepared fresh before use. The experiments were done in aqueous buffer (sodium cacodylate buffer, I = 0.05 mol dm^−3; pH = 7.0).
However, the shape of UV/Vis spectra of cyanine 2 changed with increasing concentration (calibration experiment in Figure S2 in SI). In addition to the dominant maximum at 432 nm (which most likely corresponds to the monomer form of the dye), the absorption band at 413 nm becomes more intense (Figure S2 in SI). Presumably, it corresponds to the aggregated form (H-aggregate). Based on the existence of an absorption band at 432 nm, only the monomer dye form is visible at high temperature (95 °C) (Figure S8b in SI). However, after cooling the solution to 25 °C, an additional band appears at 413 nm, which corresponds to the aggregated dye form.

[5] = system: SK-OV-3 cells; experiment: MTT cytotoxicity assay, SK-OV-3; assay type: cell-based; conditions: Homo sapiens, SK-OV-3, 72 h incubation, ± SD
Protocol: as §2

Structure (SMILES)	logKa (L + G ⇆ LG, 1:1 complex) ([1]; Tel22, potassium phosphate buffer, pH = 7.0, I = 0.1 mol dm^−3, SPECFIT fit)	IC50 [2] [nM]	∆Tm [3] [°C]	Aggregation in aqueous buffer [4]	IC50 [5] [nM]	log Ka (indicated by steeper slope of titration curves) ([1]; Tel22, K+ solution, no accurate fit possible)
CN1/C(=C/c2[se]c3ccccc3[n+]2C)Sc2ccccc21 [Compound 3, 3-methyl-2-((3-methylbenzo[d]thiazol-2(3H)-ylidene)methyl)benzo[d][1,3]selenazol-3-ium methosulphate]	6.88 ± 0.05	2380 ± 161	0.5	do not form aggregates	548 ± 102	
C[n+]1c(/C=C2\Sc3ccccc3N2CCCS)[se]c2ccccc21 [Compound 5, 2-((3-(3-mercaptopropyl)benzo[d]thiazol-2(3H)-ylidene)methyl)-3-methylbenzo[d][1,3]selenazol-3-ium methosulphate]		> 40000	2.1	significantly aggregate	29600 ± 5720	≥ 7
